The experiment concerns the target Neuronal acetylcholine receptor subunit alpha-4/beta-2 (Homo sapiens, UniProt P43681+P17787). The experiment can be described thus: Antagonist activity at human nAChR alpha4/beta2 receptor expressed in HEK ts201 cells assessed as calcium accumulation by fluorescence analysis.

Each structure is given as a SMILES string.

Chain of Neuronal acetylcholine receptor subunit alpha-4/beta-2 (P43681 whole entry): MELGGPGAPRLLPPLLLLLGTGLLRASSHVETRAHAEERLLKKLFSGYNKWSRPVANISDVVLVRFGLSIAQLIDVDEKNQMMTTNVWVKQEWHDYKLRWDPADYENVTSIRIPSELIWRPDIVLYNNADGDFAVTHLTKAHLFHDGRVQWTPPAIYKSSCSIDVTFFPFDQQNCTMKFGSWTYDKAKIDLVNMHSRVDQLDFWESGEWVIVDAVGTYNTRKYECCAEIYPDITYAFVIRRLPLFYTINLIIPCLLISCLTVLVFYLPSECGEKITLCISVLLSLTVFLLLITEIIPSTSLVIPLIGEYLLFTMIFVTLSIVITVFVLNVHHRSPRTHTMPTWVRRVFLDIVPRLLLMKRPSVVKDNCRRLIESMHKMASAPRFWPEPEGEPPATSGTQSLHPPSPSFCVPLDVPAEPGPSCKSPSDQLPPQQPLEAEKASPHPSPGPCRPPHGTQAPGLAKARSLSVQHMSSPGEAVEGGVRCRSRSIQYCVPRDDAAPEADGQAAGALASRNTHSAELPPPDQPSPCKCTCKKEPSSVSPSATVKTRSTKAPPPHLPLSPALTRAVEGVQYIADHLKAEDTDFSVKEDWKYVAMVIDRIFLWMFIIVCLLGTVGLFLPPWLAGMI
Chain of Neuronal acetylcholine receptor subunit alpha-4/beta-2 (P17787 whole entry): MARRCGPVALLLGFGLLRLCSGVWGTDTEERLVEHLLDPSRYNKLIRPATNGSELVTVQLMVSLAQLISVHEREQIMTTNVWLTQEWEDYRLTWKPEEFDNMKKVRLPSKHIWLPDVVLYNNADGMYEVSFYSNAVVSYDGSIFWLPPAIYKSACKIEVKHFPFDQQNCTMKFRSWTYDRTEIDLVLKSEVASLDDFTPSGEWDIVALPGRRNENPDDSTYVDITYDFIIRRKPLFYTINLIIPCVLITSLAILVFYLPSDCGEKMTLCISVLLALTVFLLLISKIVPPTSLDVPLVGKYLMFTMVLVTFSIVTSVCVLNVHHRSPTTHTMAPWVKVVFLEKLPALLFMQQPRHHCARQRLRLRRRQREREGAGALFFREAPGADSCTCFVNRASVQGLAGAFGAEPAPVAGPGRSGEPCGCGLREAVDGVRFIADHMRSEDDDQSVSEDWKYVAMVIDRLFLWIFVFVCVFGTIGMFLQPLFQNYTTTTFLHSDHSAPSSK

For the molecule `O=C(OCC1CCCN(CCCc2ccccc2)C1)c1ccccc1-n1c(O)cc(CCc2ccccc2)c1O` (stereo not given), the IC50 amounted to 5.13 µM.

With `CCN1CCCC(COC(=O)c2ccccc2-n2c(O)cc(Cc3ccccc3)c2O)C1` (stereo not given), the IC50 came out at 4.47 µM.

`O=C(OCC1=CCCN(CCCc2ccccc2)C1)c1ccccc1-n1c(O)cc(Cc2ccccc2)c1O`: the IC50 was found to be 5.13 µM.

In the case of `O=C(OCC1CCCN(CCc2ccccc2)C1)c1ccccc1-n1c(O)cc(Cc2ccccc2)c1O` (stereo not given), the IC50 is 4.47 µM.

For `Cc1cc(O)n(-c2ccccc2C(=O)OC[C@@H]2CCCN(CCCc3ccccc3)C2)c1O`, the IC50 came to 8.91 µM.

(Values after BindingDB's records for doi:10.1016/j.bmcl.2011.11.051 (The Ohio State University, 2012).)
